The values that follow come from PubChem BioAssay AID1918998 (Molecular Pharmacology Branch, DTP, NCI, 2023).

Where “and” joins values, the source holds several entries; their conditions need not be identical. Identical values can stand only once.

This assay relates to 521955-158-R2-J5-PDC complex spheroid growth. Description: Anticancer human tumor 521955-158-R2-J5-PDC patient-derived pancreatic carcinoma cell line growth inhibition [AhR]. The settings on record: for viability, T/C: stronger effect = lower value. The procedure, abridged: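 Agents were dosed in half-log steps down from roughly clinical Cmax, or from 10 microM where Cmax was unknown, alone and with AhR antagonists. Read-out: percent test/control growth of tumor spheroids containing HUVEC and MSC stromal cells.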

Where [1] appears, read: curve of first compound, second compound 0.1 µM.
The mark [2] stands for this setting: curve of first compound, second compound 0.316 µM.
The mark [3] stands for this setting: curve of first compound, second compound 1 µM.
The mark [4] stands for this setting: curve of first compound, second compound 3.16 µM.
[5] abbreviates: curve of first compound, second compound 10 µM.
The mark [6] stands for this setting: second compound 0.1 µM, first compound 0.0316 µM.
The mark [7] stands for this setting: second compound 0.1 µM, first compound 0.1 µM.
[8] abbreviates: second compound 0.1 µM, first compound 0.316 µM.
[9] abbreviates: second compound 0.1 µM, first compound 1 µM.
Setting [10] is: second compound 0.1 µM, first compound 3.16 µM.
Where [11] appears, read: second compound 0.1 µM, first compound 10 µM.
Setting [12] is: second compound 0.316 µM, first compound 0.0316 µM.
Setting [13] is: second compound 0.316 µM, first compound 0.1 µM.
The mark [14] stands for this setting: second compound 0.316 µM, first compound 0.316 µM.
[15] abbreviates: second compound 0.316 µM, first compound 1 µM.
Setting [16] is: second compound 0.316 µM, first compound 3.16 µM.
[17] abbreviates: second compound 0.316 µM, first compound 10 µM.
Setting [18] is: second compound 1 µM, first compound 0.0316 µM.
Where [19] appears, read: second compound 1 µM, first compound 0.1 µM.
[20] abbreviates: second compound 1 µM, first compound 0.316 µM.
[21] abbreviates: second compound 1 µM, first compound 1 µM.
Setting [22] is: second compound 1 µM, first compound 3.16 µM.
The mark [23] stands for this setting: second compound 1 µM, first compound 10 µM.
The mark [24] stands for this setting: second compound 3.16 µM, first compound 0.0316 µM.
The mark [25] stands for this setting: second compound 3.16 µM, first compound 0.1 µM.
Setting [26] is: second compound 3.16 µM, first compound 0.316 µM.
Setting [27] is: second compound 3.16 µM, first compound 1 µM.
Where [28] appears, read: second compound 3.16 µM, first compound 3.16 µM.
The mark [29] stands for this setting: second compound 3.16 µM, first compound 10 µM.
The mark [30] stands for this setting: second compound 10 µM, first compound 0.0316 µM.
The mark [31] stands for this setting: second compound 10 µM, first compound 0.1 µM.
[32] abbreviates: second compound 10 µM, first compound 0.316 µM.
Where [33] appears, read: second compound 10 µM, first compound 1 µM.
The mark [34] stands for this setting: second compound 10 µM, first compound 3.16 µM.
Where [35] appears, read: second compound 10 µM, first compound 10 µM.
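Wherever viability, T/C is given: spheroids mix tumor cells with HUVEC endothelium and human MSC stroma; luminescence taken as viability surrogate after a week of drug exposure.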

For the compound `NS(=O)(=O)OCC1CC(n2ccc3c(NC4CCc5ccccc54)ncnc32)CC1O` (stereo unspecified), the viability, T/C is 86.2% and 98.4% and 88.1% (compound 0.0316 µM); 99.3% and 98.1% and 95.9% (compound 0.1 µM); 83.6% and 87.9% and 66% (compound 0.316 µM); 54.8% and 54.6% and 36.6% (compound 1 µM); 36.5% and 32.9% and 19.3% (compound 3.16 µM); 30.5% and 21% and 16.8% (compound 10 µM). In addition, under “curve of compound”, the concentration for half-maximal inhibition (IC50) is 1330 nM and 598 nM.

Turning to `COc1cc(Nc2ncc3c(n2)-c2ccc(Cl)cc2C(c2c(F)cccc2OC)=NC3)ccc1C(=O)O` + Cc1cncc(-c2nc(NCCc3c[nH]c4ccccc34)c3ncn(C(C)C)c3n2)c1, the IC50 runs as follows: under setting [1], > 10000 nM; under setting [2], > 10000 nM; under setting [3], > 10000 nM; under setting [4], > 10000 nM; under setting [5], > 10000 nM. The viability, T/C is 100% under setting [6]; 78.8% under setting [7]; 78.8% under setting [8]; 72.3% under setting [9]; 80.1% under setting [10]; 74.2% under setting [11]. Further, the viability, T/C by setting is: under setting [12], 99.7%; under setting [13], 79.9%; under setting [14], 87.1%; under setting [15], 73.1%; under setting [16], 68%; under setting [17], 60.9%. Besides, the viability, T/C reads like this: under setting [18], 109%; under setting [19], 88.5%; under setting [20], 103%; under setting [21], 83.2%; under setting [22], 70.7%; under setting [23], 70.4%. Also, the viability, T/C is, setting by setting: under setting [24], 127%; under setting [25], 107%; under setting [26], 97.5%; under setting [27], 90.8%; under setting [28], 83%; under setting [29], 76.7%. Besides, the viability, T/C under setting [30] was 125%; the viability, T/C under setting [31] is 88.4%; the viability, T/C under setting [32] is 76.2%; the viability, T/C under setting [33] is 84.3%; the viability, T/C under setting [34] is 62.8%; the viability, T/C under setting [35] was 81.3%.

With `NS(=O)(=O)OCC1CC(n2ccc3c(NC4CCc5ccccc54)ncnc32)CC1O` (stereo unspecified) + CC(CO)NC(=O)c1cc(-c2ccc(Cl)cc2)nn(-c2cnn(C)c2)c1=O, the IC50 is, setting by setting: under setting [1], 486 nM; under setting [2], 484 nM; under setting [3], 492 nM; under setting [4], 371 nM; under setting [5], 232 nM. For the same compound, the viability, T/C was 87.2% under setting [6]; 92.5% under setting [7]; 61.7% under setting [8]; 29.5% under setting [9]; 20.6% under setting [10]; 18.7% under setting [11]. For the same compound, the viability, T/C under setting [12] is 93.1%; the viability, T/C under setting [13] was 90.2%; the viability, T/C under setting [14] was 61.1%; the viability, T/C under setting [15] was 30.5%; the viability, T/C under setting [16] was 19.5%; the viability, T/C under setting [17] is 18.3%. The viability, T/C was 90.5% under setting [18]; 97.7% under setting [19]; 62% under setting [20]; 31% under setting [21]; 21.6% under setting [22]; 20.7% under setting [23]. In addition, the viability, T/C runs as follows: under setting [24], 85.5%; under setting [25], 83.1%; under setting [26], 49.8%; under setting [27], 31.3%; under setting [28], 20.8%; under setting [29], 14.7%. Further, the viability, T/C was 68.8% under setting [30]; 66% under setting [31]; 41.6% under setting [32]; 31.2% under setting [33]; 19.2% under setting [34]; 15.2% under setting [35].

Consider `COc1cc(C2c3cc4c(cc3C(OC3OC5COC(C)OC5C(O)C3O)C3COC(=O)C23)OCO4)cc(OC)c1O` (stereo unspecified), for which the viability, T/C (compound 0.0316 µM) was 92.5% and 85.2% and 81.7%; the viability, T/C (compound 0.1 µM) was 98.5% and 79.4% and 77%; the viability, T/C (compound 0.316 µM) is 76.4% and 80.6% and 66.2%; the viability, T/C (compound 1 µM) was 56.4% and 36.8% and 39.9%; the viability, T/C (compound 3.16 µM) is 36.9% and 23.6% and 22.1%; the viability, T/C (compound 10 µM) is 31% and 20.7% and 19.1%. Further, under “curve of compound”, the concentration for half-maximal inhibition (IC50) was 1380 nM and 706 nM and 636 nM.

As to `CC1COCCN1c1cc(-c2ccnn2C)c2ccnc(-c3ccn[nH]3)c2n1` (stereo unspecified), the viability, T/C (compound 0.00316 µM) was 96.3% and 94.8% and 101%; the viability, T/C (compound 0.01 µM) is 98.2% and 92.8% and 104%; the viability, T/C (compound 0.0316 µM) is 97.8% and 84.1% and 95.1%; the viability, T/C (compound 0.1 µM) is 48% and 79.2% and 42.4%; the viability, T/C (compound 0.316 µM) was 15.5% and 19.4% and 16.3%; the viability, T/C (compound 1 µM) was 19.2% and 18.6% and 16%. Also, the IC50 (curve of compound) was 95.5 nM and 176 nM and 84.6 nM.

Regarding `Nc1ccccc1NC(=O)c1ccc(CNC(=O)OCc2cccnc2)cc1` + CC(CO)NC(=O)c1cc(-c2ccc(Cl)cc2)nn(-c2cnn(C)c2)c1=O, the IC50 reads like this: under setting [1], 4560 nM; under setting [2], 3740 nM; under setting [3], 2940 nM; under setting [4], 3620 nM; under setting [5], 3360 nM. Moreover, the viability, T/C under setting [6] was 119%; the viability, T/C under setting [7] is 126%; the viability, T/C under setting [8] is 123%; the viability, T/C under setting [9] is 87.9%; the viability, T/C under setting [10] is 66.2%; the viability, T/C under setting [11] was 22.9%. In addition, the viability, T/C runs as follows: under setting [12], 111%; under setting [13], 130%; under setting [14], 114%; under setting [15], 85.9%; under setting [16], 57.1%; under setting [17], 25.2%. Also, the viability, T/C is, setting by setting: under setting [18], 118%; under setting [19], 134%; under setting [20], 120%; under setting [21], 77.1%; under setting [22], 54.6%; under setting [23], 20%. The viability, T/C is 115% under setting [24]; 109% under setting [25]; 117% under setting [26]; 75.6% under setting [27]; 58.8% under setting [28]; 17.6% under setting [29]. Further, the viability, T/C is 94.7% under setting [30]; 91% under setting [31]; 101% under setting [32]; 81.6% under setting [33]; 52.6% under setting [34]; 14.1% under setting [35].

For `O=C(C=Cc1cccc(S(=O)(=O)Nc2ccccc2)c1)NO` + Cc1ccccc1N=Nc1ccc(NC(=O)c2ccnn2C)c(C)c1, the IC50 was > 10000 nM under setting [1]; 6540 nM under setting [2]; > 10000 nM under setting [3]; 2920 nM under setting [4]; 3550 nM under setting [5]. Moreover, the viability, T/C reads like this: under setting [6], 95.4%; under setting [7], 104%; under setting [8], 121%; under setting [9], 96%; under setting [10], 72.6%; under setting [11], 52%. The viability, T/C runs as follows: under setting [12], 102%; under setting [13], 115%; under setting [14], 128%; under setting [15], 89.2%; under setting [16], 65.5%; under setting [17], 41.5%. Also, the viability, T/C under setting [18] was 105%; the viability, T/C under setting [19] is 136%; the viability, T/C under setting [20] was 136%; the viability, T/C under setting [21] is 102%; the viability, T/C under setting [22] is 59.5%; the viability, T/C under setting [23] was 48.9%. In addition, the viability, T/C was 105% under setting [24]; 116% under setting [25]; 154% under setting [26]; 93.7% under setting [27]; 54.2% under setting [28]; 39.4% under setting [29]. Besides, the viability, T/C by setting is: under setting [30], 147%; under setting [31], 146%; under setting [32], 129%; under setting [33], 87.9%; under setting [34], 56.6%; under setting [35], 24.9%.

In general, viability, T/C refers to the ratio of treated to control. As a reminder, the IC50 is the concentration that inhibits the measured activity by half.
